According to ChEMBL document CHEMBL3774306, “Bisimidazoline arylamides binding to the DNA minor groove: N1-hydroxylation enhances binding affinity and selectivity to AATT sites” (Medchemcomm, 2015):
pKd: −log10 of the molar value. The source made the active and inactive calls. The rule behind the calls is not given here.

What was measured:
Homo sapiens [1] = species: Homo sapiens; assay: Ratio of primary binding constant to secondary binding constant for biotin labelled 5'-CGAATTCGTCTCCGAATTCG-3' hairpin dsDNA (unknown origin) immobilized on biosensor chip by surface plasmon resonance analysis
[2] = Binding affinity to biotin labelled 5'-CGAATTCGTCTCCGAATTCG-3' hairpin dsDNA (unknown origin) immobilized on biosensor chip by surface plasmon resonance analysis; set-up: species or system Homo sapiens
[3] = Binding affinity to biotin labelled 5'-CATATATATCCCCATATATATG-3' hairpin dsDNA (unknown origin) immobilized on biosensor chip by surface plasmon resonance analysis; set-up: species or system Homo sapiens
[4] = Binding affinity to biotin labelled 5'-CGCGCGCGTTTTCGCGCGCG-3' hairpin dsDNA (unknown origin) immobilized on biosensor chip by surface plasmon resonance analysis; set-up: species or system Homo sapiens; conditions: for pKd: read-out: Kd
[5] = Binding affinity to fish sperm DNA assessed as hypochromicity change at 30 uM by UV-vis spectrophotometry relative to control; conditions: Hyperoartia
Homo sapiens [6] = species: Homo sapiens; assay: Ratio of primary binding constant to secondary binding constant for biotin labelled 5'-CATATATATCCCCATATATATG-3' hairpin dsDNA (unknown origin) immobilized on biosensor chip by surface plasmon resonance analysis
Homo sapiens [7] = species: Homo sapiens; assay: Selectivity ratio of Kd for biotin labelled 5'-CATATATATCCCCATATATATG-3' hairpin dsDNA (unknown origin) to Kd for biotin labelled 5'-CGAATTCGTCTCCGAATTCG-3' hairpin dsDNA (unknown origin)
[8] = Binding affinity to biotin labelled 5'-CATATATATCCCCATATATATG-3' hairpin dsDNA (unknown origin) immobilized on streptavidin-derivatized gold chip incubated for 5 mins followed by dissociation period of 5 mins by surface plasmon resonance analysis; set-up: species or system Homo sapiens
Homo sapiens [9] = species: Homo sapiens; assay: Selectivity ratio of Kd for biotin labelled 5'-CGCGCGCGTTTTCGCGCGCG-3' hairpin dsDNA (unknown origin) to Kd for biotin labelled 5'-CATATATATCCCCATATATATG-3' hairpin dsDNA (unknown origin)
Homo sapiens [10] = species: Homo sapiens; assay: Binding affinity to GAATAATCGCGATTATTC dsDNA (39 bp) (unknown origin) assessed as slow binding constant
Homo sapiens [11] = species: Homo sapiens; assay: Binding affinity to GAATAATCGCGATTATTC dsDNA (39 bp) (unknown origin) assessed as long lasting constant
Homo sapiens [12] = species: Homo sapiens; assay: Binding affinity to CGCGCGCG dsDNA (unknown origin) assessed as isosbestic point at 2.5 uM by UV-vis spectrophotometry
Homo sapiens [13] = species: Homo sapiens; assay: Binding affinity to CATATATAT dsDNA (unknown origin) assessed as isosbestic point at 2.5 uM by UV-vis spectrophotometry
Homo sapiens [14] = species: Homo sapiens; assay: Binding affinity to CGAATTCG dsDNA (unknown origin) assessed as isosbestic point at 2.5 uM by UV-vis spectrophotometry
Homo sapiens [15] = species: Homo sapiens; assay: Binding affinity to CGAATTCG dsDNA (unknown origin) assessed as spectral changes at 2.5 uM by UV-vis spectrophotometry
Homo sapiens [16] = species: Homo sapiens; assay: Binding affinity to CGCGCGCG dsDNA (unknown origin) assessed as spectral changes at 2.5 uM by UV-vis spectrophotometry
Homo sapiens [17] = species: Homo sapiens; assay: Binding affinity to CATATATAT dsDNA (unknown origin) assessed as spectral changes at 2.5 uM by UV-vis spectrophotometry

| SMILES | Ratio (Homo sapiens [1]) | pKd [2] | pKd [3] | pKd [4] | Activity [5] | Ratio (Homo sapiens [6]) | other results |
| --- | --- | --- | --- | --- | --- | --- | --- |
| c1cc(NC2=NCCN2)ccc1CCc1ccc(NC2=NCCN2)cc1 | 5 | 5.56 | 5.36 | 4.71 | – | 5 | – |
| CC/N=C(\N)Nc1ccc(NC(=O)c2ccc(N/C(N)=N/CC)cc2)cc1 | – | – | – | < 5.00 | – | – | – |
| c1cc(NC2=NCCN2)cc(Nc2ccc(NC3=NCCN3)cc2)c1 | 100 | 5.57 | – | – | – | 100 | pKd [8]: 5.66; Kd [4]: Not Active |
| CC(C)/N=C(\N)Nc1ccc(NC(=O)c2ccc(N/C(N)=N/C(C)C)cc2)cc1 | – | – | – | < 5.00 | – | – | – |
| N=C(N)Nc1ccc(NC(=O)c2ccc(NC(=N)N)cc2)cc1 | – | – | – | < 5.00 | – | – | – |
| CC/N=C(\N)Nc1ccc(NC(=O)Nc2ccc(N/C(N)=N/CC)cc2)cc1 | – | < 4.54 | < 4.54 | – | – | – | Kd [4]: Not Active |

The next lines start with results.

| Ratio (Homo sapiens [1]) | pKd [2] | pKd [3] | pKd [4] | Activity [5] | Ratio (Homo sapiens [6]) | SMILES | other results |
| --- | --- | --- | --- | --- | --- | --- | --- |
| 100 | < 4.54 | < 4.54 | < 4.54 | 9% | 100 | CCO[N+]1=C(Nc2ccc(CCc3ccc(NC4=[N+](OCC)CCN4)cc3)cc2)NCC1 | – |
| 100 | 6.59 | 6.45 | < 5.00 | 9% | 100 | CO[N+]1=C(Nc2ccc(NC(=O)c3ccc(NC4=[N+](OC)CCN4)cc3)cc2)NCC1 | Selectivity ratio (Homo sapiens [7]): 1.5 |
| 30 | 6.06 | 5.40 | 4.11 | 9% | 30 | [O-][N+]1=C(Nc2ccc(CCc3ccc(NC4=[N+]([O-])CCN4)cc3)cc2)NCC1 | – |
| 100 | 4.94 | 5.09 | 3.80 | – | 100 | O=C(Nc1ccc(NC2=NCCN2)cc1)Nc1ccc(NC2=NCCN2)cc1 | Selectivity ratio (Homo sapiens [9]): 10 |
| 100 | 6.78 | 6.51 | < 5.00 | – | 100 | O=C(Nc1ccc(NC2=NCCN2)cc1)c1ccc(NC2=NCCN2)cc1 | Selectivity ratio (Homo sapiens [7]): 1.5 |
| 100 | 6.25 | 5.75 | 4.18 | – | 100 | [O-][N+]1=C(Nc2ccc(Nc3cccc(NC4=[N+]([O-])CCN4)c3)cc2)NCC1 | K (Homo sapiens [10]): 38 M⁻¹ s⁻¹; K (Homo sapiens [11]): 0.00265 s⁻¹; Activity (Homo sapiens [12]): inactive; Activity (Homo sapiens [13]): 335 nm; Activity (Homo sapiens [14]): 325 nm |
| 100 | 7.11 | 6.56 | 4.73 | 9% | 100 | O=C(Nc1ccc(NC2=[N+]([O-])CCN2)cc1)c1ccc(NC2=[N+]([O-])CCN2)cc1 | Activity (Homo sapiens [15]): Active; Activity (Homo sapiens [16]): Active; Selectivity ratio (Homo sapiens [7]): 3.5; Activity (Homo sapiens [17]): Active |
